Reference: publication PMC8658016, “Identification of New Compounds with Anticonvulsant and Antinociceptive Properties in a Group of 3-substituted (2,5-dioxo-pyrrolidin-1-yl)(phenyl)-Acetamides” (International Journal of Molecular Sciences, 2021)
Like-named read-outs stand apart in the source and are kept apart here.

Tests used:
mice [1] = experiment: Maximal electroshock seizure (MES) test; format: in vivo, mouse; conditions: mice i.p.; for ED50: Mus musculus, ip, 95% confidence interval in parentheses; for MES screening: number of mice protected / number of mice tested / protection in the MES test: 100 mg/kg, 0.5 h
mice [2] = experiment: Psychomotor 6 Hz (32 mA) seizure test; format: in vivo, mouse; conditions: mice i.p.; for ED50: Mus musculus, ip, 95% confidence interval in parentheses; for 6 Hz (32 mA) screening: number of mice protected / number of mice tested / protection in the 6 Hz (32 mA) test: 100 mg/kg, 0.5 h
mice [3] = experiment: Subcutaneous pentylenetetrazole (scPTZ) seizure test; format: in vivo, mouse; conditions: mice i.p.; for ED50: Mus musculus, ip, 95% confidence interval in parentheses; for protection in the scPTZ test / scPTZ screening: number of mice protected / number of mice tested: 100 mg/kg, 0.5 h
in vivo = conditions: male, CD-1, mouse, ip
[4] = system: TTX-sensitive Na+ channel; experiment: Radioligand binding, TTX-sensitive Na+ channel; conditions: rat cerebral cortex
TRPV1 (VR1) (h) = biological target: T1, TRPV1 (VR1) (h) (Homo sapiens, UniProt Q8NER1); experiment: TRPV1 (VR1) functional assay, antagonist effect; format: cell-based; conditions: HEK293, human recombinant HEK-293 cells, read-out: % Inhibition of Control Agonist Response, TRPV1 (VR1) (h) (antagonist effect)
T1 construct: Cerep Laboratories / Eurofins Panlabs (contract assay)
T1 sequence (Q8NER1 whole entry): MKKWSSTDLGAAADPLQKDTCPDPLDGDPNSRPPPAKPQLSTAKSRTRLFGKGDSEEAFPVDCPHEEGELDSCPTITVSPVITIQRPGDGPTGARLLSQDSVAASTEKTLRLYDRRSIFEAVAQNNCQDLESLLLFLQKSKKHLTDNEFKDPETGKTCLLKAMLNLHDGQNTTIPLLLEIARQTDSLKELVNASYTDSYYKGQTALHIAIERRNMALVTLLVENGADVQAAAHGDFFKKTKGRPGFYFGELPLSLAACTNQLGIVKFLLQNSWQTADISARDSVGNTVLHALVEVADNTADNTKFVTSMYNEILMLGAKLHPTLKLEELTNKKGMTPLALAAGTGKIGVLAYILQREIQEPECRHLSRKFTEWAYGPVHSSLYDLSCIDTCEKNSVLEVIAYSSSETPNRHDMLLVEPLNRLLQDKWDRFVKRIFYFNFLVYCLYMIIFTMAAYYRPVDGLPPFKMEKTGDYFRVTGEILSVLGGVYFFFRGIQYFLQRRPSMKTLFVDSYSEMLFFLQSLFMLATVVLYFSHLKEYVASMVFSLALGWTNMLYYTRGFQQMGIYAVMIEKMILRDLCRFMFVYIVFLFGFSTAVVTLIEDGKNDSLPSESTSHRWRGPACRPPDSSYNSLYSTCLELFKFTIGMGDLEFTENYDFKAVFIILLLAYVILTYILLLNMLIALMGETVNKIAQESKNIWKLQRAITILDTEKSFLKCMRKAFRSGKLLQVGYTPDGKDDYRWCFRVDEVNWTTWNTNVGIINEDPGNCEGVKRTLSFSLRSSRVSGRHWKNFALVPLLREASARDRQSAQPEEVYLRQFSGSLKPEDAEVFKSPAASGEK

[5] = system: Cav1.2 channel (dihydropyridine site, antagonist radioligand); experiment: Radioligand binding, Cav1.2 channel (dihydropyridine site); conditions: rat cerebral cortex
[6] = biological target: Cav1.2 (h) calcium ion channel (Homo sapiens, UniProt Q13936); experiment: Cav1.2 calcium ion channel cell based antagonist calcium flux assay; conditions: HEK293, read-out: % Inhibition of Control Agonist Response, Cav1.2 (h) calcium ion channel cell based antagonist calcium flux assay
Chain of Cav1.2 (h) calcium ion channel (Q13936 whole entry): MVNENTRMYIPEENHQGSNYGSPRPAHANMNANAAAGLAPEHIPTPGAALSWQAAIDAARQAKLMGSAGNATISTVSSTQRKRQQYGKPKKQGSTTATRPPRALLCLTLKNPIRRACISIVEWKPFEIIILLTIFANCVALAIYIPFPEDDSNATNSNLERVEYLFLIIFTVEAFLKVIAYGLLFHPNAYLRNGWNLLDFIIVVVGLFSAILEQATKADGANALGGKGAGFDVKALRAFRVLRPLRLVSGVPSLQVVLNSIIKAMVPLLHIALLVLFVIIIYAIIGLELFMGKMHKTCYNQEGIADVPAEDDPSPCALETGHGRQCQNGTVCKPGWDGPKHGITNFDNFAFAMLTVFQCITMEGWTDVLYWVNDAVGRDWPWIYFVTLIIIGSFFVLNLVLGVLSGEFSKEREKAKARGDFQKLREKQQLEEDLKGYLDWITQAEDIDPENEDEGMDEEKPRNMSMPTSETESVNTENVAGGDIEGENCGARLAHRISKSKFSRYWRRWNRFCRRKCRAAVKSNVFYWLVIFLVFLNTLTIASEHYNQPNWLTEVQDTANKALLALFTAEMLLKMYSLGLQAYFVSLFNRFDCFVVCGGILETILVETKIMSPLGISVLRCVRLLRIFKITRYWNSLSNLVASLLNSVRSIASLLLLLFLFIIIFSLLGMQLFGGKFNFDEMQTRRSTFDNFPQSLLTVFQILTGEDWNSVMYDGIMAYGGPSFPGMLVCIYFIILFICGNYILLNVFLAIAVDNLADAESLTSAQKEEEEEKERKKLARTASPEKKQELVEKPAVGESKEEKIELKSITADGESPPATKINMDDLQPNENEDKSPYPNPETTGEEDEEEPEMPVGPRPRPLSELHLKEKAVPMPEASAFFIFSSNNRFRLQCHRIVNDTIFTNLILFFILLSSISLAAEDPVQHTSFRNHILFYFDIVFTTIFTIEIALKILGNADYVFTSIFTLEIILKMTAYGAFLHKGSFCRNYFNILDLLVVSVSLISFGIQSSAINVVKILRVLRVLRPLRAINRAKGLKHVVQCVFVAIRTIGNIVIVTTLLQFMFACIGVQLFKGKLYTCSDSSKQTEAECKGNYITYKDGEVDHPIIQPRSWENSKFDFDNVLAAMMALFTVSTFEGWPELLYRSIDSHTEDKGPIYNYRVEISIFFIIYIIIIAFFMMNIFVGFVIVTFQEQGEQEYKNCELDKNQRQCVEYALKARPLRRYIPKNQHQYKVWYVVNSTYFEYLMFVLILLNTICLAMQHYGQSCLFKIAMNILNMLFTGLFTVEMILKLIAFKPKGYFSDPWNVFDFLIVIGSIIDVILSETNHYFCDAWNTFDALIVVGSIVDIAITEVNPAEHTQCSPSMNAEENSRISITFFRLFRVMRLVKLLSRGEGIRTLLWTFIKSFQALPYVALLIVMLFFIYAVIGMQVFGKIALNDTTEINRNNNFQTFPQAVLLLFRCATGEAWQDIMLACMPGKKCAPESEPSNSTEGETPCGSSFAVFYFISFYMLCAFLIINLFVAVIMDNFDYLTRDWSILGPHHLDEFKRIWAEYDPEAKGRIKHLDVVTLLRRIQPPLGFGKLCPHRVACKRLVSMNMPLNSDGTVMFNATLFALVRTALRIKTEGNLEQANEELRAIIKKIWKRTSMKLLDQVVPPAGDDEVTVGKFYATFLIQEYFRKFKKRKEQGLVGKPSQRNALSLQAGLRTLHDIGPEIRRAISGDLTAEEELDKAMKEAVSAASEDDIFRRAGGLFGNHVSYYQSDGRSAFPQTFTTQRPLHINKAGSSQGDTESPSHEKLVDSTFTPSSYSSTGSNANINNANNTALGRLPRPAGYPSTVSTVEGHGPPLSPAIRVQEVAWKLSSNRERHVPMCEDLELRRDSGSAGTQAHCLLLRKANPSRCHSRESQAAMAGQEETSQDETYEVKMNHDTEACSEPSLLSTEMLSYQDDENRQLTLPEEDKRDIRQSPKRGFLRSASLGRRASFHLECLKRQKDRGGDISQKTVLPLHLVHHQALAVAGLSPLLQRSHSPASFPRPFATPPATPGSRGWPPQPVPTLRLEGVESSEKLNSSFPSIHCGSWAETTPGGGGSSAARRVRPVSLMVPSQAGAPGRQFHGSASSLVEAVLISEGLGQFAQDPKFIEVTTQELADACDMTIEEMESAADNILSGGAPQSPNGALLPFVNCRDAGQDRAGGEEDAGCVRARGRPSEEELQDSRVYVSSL
Chain of Cav1.2 (h) calcium ion channel (Q08289 whole entry partner): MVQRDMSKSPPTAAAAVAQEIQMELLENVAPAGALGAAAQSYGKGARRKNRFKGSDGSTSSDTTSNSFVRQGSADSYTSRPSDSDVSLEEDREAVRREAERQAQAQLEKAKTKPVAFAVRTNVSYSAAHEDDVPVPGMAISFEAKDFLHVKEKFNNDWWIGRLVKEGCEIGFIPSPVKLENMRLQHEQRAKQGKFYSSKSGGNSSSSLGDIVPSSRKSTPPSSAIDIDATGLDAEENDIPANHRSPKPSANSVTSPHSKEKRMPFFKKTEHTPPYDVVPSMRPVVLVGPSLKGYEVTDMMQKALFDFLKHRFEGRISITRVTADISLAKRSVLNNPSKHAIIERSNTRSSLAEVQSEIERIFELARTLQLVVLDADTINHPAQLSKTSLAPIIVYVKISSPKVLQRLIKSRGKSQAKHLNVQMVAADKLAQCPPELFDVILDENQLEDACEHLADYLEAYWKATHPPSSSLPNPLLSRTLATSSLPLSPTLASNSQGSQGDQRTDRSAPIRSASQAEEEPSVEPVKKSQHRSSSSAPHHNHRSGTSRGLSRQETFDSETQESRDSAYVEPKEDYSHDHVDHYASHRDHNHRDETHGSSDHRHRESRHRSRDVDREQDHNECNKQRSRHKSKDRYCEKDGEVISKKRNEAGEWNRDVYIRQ
Chain of Cav1.2 (h) calcium ion channel (P54289 25-956 partner limits assumed): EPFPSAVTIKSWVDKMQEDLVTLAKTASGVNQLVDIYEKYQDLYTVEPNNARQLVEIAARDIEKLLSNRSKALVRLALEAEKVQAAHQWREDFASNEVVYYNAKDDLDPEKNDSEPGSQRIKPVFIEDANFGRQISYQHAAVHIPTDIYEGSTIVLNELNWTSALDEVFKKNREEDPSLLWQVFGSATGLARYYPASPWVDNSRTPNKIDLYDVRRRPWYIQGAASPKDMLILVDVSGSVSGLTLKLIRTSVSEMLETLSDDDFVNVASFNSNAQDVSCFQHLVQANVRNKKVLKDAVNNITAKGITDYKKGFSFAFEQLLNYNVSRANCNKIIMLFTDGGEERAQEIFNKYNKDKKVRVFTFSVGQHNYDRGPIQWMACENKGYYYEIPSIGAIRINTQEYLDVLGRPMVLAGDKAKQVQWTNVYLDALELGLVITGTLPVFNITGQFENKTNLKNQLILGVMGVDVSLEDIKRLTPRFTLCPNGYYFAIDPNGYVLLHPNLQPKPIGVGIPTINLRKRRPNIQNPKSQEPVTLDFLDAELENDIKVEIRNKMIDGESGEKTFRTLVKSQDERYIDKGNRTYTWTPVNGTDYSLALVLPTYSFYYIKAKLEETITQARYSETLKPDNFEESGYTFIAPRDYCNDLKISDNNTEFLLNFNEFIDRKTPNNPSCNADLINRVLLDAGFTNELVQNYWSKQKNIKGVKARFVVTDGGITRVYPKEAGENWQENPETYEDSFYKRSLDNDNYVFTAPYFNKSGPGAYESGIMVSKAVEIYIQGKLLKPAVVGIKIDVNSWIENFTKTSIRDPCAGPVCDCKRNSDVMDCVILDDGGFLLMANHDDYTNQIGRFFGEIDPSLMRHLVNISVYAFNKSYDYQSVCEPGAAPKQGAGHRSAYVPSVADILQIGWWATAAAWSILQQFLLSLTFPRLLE
Chain of Cav1.2 (h) calcium ion channel (P54289 957-1103 partner limits assumed): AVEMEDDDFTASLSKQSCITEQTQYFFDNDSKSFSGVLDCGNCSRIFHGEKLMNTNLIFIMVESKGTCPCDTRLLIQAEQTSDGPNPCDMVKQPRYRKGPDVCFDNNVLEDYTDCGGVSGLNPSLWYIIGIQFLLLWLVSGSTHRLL

mice [7] = conditions: mice i.p.; cited from earlier work
mice [8] = conditions: mice i.p.; cited from earlier work; remark: listed apart in the source
mice [9] = conditions: mice i.p.; cited from earlier work; remark: listed apart in the source
[10] = system: fast voltage-gated sodium currents in rat prefrontal cortex pyramidal neurons; parameters: method as in PMID 33647745; conditions: 1 µM; p < 0.01, n = 5; cited from earlier work
mice [11] = system: mice; parameters: method as in PMID 32929733; conditions: mice i.p.; cited from earlier work
mice [12] = conditions: mice i.p., cited from earlier work
mice [13] = system: mice; parameters: method as in PMID 28934547; conditions: active only in a very high dose; cited from earlier work

Row | Compound | ED50 (mice [1]) | MES screening: number of mice protected / number of mice tested (mice [1]) | ED50 (mice [2]) | 6 Hz (32 mA) screening: number of mice protected / number of mice tested (mice [2]) | protection in the 6 Hz (32 mA) test (mice [2]) | ED50 (mice [3]) | scPTZ screening: number of mice protected / number of mice tested (mice [3]) | melting point | TD50 (in vivo) | also measured
1 | CN(C)C1CC(=O)N([C@@H](C(=O)N2CCN(c3cccc(C(F)(F)F)c3)CC2)c2ccccc2)C1=O.Cl (stereo partly drawn) [(C1-R)-31, 3-Dimethylamino-1-((R)-oxo-1-phenyl-2-(4-(3-(trifluoromethyl)phenyl)-piperazin-1-yl)ethyl)pyrrolidine-2,5-dione hydrochloride] | 57.7 mg/kg | 4/4 | 50.9 mg/kg | 3/4 | 75% | 65.5 mg/kg | 3/4 | 169.8 to 170.6 °C | 94.9 mg/kg | protection in the MES test (mice [1]): 100%; protection in the scPTZ test (mice [3]): 75%
2 | CN(C)C1CC(=O)N([C@@H](C(=O)N2CCN(c3cccc(OC(F)(F)F)c3)CC2)c2ccccc2)C1=O.Cl (stereo partly drawn) [(C1-R)-32, 3-Dimethylamino-1-((R)-2-oxo-1-phenyl-2-(4-(3-(trifluoromethoxy)phenyl)piperazin-1-yl)ethyl)pyrrolidine-2,5-dione hydrochloride] | 26.3 mg/kg | 4/4 | 28.3 mg/kg | 3/4 | 75% | 44.9 mg/kg | 3/4 | 164.8 to 165.7 °C | 72 mg/kg | protection in the MES test (mice [1]): 100%; protection in the scPTZ test (mice [3]): 75%; % Inhibition of Control-Specific Binding, TTX-sensitive Na+ channel ([4]; 10 µM): 33.4%; % Inhibition of Control-Specific Binding, TTX-sensitive Na+ channel ([4]; 50 µM): 101.9%; inhibition at 10 µM (TRPV1 (VR1) (h); 10 µM): 8.5%; inhibition at 50 µM (TRPV1 (VR1) (h); 50 µM): 44.6%; % Inhibition of Control-Specific Binding, Cav1.2 channel (dihydropyridine site, antagonist radioligand) ([5]; 10 µM): 18.6%; % Inhibition of Control-Specific Binding, Cav1.2 channel (dihydropyridine site, antagonist radioligand) ([5]; 50 µM): 88.9%; inhibition at 10 µM [6]: 38%
3 | CN(C)C1CC(=O)N([C@@H](C(=O)N2CCN(c3cccc(SC(F)(F)F)c3)CC2)c2ccccc2)C1=O.Cl (stereo partly drawn) [(C1-R)-33, 3-Dimethylamino-1-((R)-2-oxo-1-phenyl-2-(4-(3-((trifluoromethyl)thio)phenyl)piperazin-1-yl)ethyl)pyrrolidine-2,5-dione hydrochloride] | – | 1/4 | – | 1/4 | – | – | 1/4 | 173.2 to 174.7 °C | – | –
4 | CN(C)C1CC(=O)N([C@H](C(=O)N2CCN(c3cccc(C(F)(F)F)c3)CC2)c2ccccc2)C1=O.Cl (stereo partly drawn) [(C1-S)-31, 3-Dimethylamino-1-((S)-oxo-1-phenyl-2-(4-(3-(trifluoromethyl)phenyl)-piperazin-1-yl)ethyl)pyrrolidine-2,5-dione hydrochloride] | – | 1/4 | > 130 mg/kg | 2/4 | – | – | 1/4 | 169.2 to 170.8 °C | 188 mg/kg | –
5 | CNC1CC(=O)N(C(C(=O)N2CCN(c3cccc(C(F)(F)F)c3)CC2)c2ccccc2)C1=O.Cl (stereo not drawn) [Compound 13, 3-(Methylamino)-1-(2-oxo-1-phenyl-2-(4-(3-(trifluoromethyl)phenyl)piperazin-1-yl)ethyl)pyrrolidine-2,5-dione hydrochloride] | – | 1/4 | 93.6 mg/kg | 2/4 | 50% | 85.6 mg/kg | 2/4 | 161.2 to 163.4 °C | – | –
6 | CCN(CC)C1CC(=O)N(C(C(=O)N2CCN(c3cccc(C(F)(F)F)c3)CC2)c2ccccc2)C1=O.Cl (stereo not drawn) [Compound 15, 3-(Diethylamino)-1-(2-oxo-1-phenyl-2-(4-(3-(trifluoromethyl)phenyl)piperazin-1-yl)ethyl)pyrrolidine-2,5-dione hydrochloride] | 77.5 mg/kg | 4/4 | 80.4 mg/kg | 3/4 | 75% | – | 1/4 | 142.2 to 143.1 °C | 247 mg/kg | protection in the MES test (mice [1]): 100%
7 | Cl.O=C(C(c1ccccc1)N1C(=O)CC(N2CCOCC2)C1=O)N1CCN(c2cccc(C(F)(F)F)c2)CC1 (stereo not drawn) [Compound 16, 3-Morpholino-1-(2-oxo-1-phenyl-2-(4-(3-(trifluoromethyl)phenyl)piperazin-1-yl)ethyl)pyrrolidine-2,5-dione hydrochloride] | – | 0/4 | – | 0/4 | – | – | 1/4 | 146.2 to 147.5 °C | – | –
8 | CN(C)C1CC(=O)N(C(C(=O)N2CCN(c3cccc(OC(F)(F)F)c3)CC2)c2ccccc2)C1=O.Cl (stereo not drawn) [Compound 17, 3-Dimethylamino-1-(2-oxo-1-phenyl-2-(4-(3-(trifluoromethoxy)phenyl)piperazin-1-yl)ethyl)pyrrolidine-2,5-dione hydrochloride] | 33.3 mg/kg | 3/4 | 28.2 mg/kg | 2/4 | 50% | 31.3 mg/kg | 3/4 | 152.3 to 153.5 °C | 69.7 mg/kg | protection in the MES test (mice [1]): at least 75%; protection in the scPTZ test (mice [3]): 75%
9 | CN(C)C1CC(=O)N(C(C(=O)N2CCN(c3cccc(SC(F)(F)F)c3)CC2)c2ccccc2)C1=O.Cl (stereo not drawn) [Compound 18, 3-Dimethylamino-1-(2-oxo-1-phenyl-2-(4-(3-((trifluoromethyl)thio)phenyl)piperazin-1-yl)ethyl)pyrrolidine-2,5-dione hydrochloride] | – | 1/4 | – | 1/4 | – | – | 1/4 | 170.1 to 171.5 °C | – | –
10 | CCC1(C)CC(=O)NC1=O (stereo not drawn) [ETX, ethosuximide, reference compound] | – | – | > 200 mg/kg | – | – | 140 mg/kg | – | – | – | –
11 | O=C([C@@H](c1ccccc1)N1C(=O)CCC1=O)N1CCN(c2cccc(C(F)(F)F)c2)CC1 [II] | – | – | – | – | – | – | – | – | – | ED50 MES (mice [7]): 36.0 (31.4–41.2) mg/kg; ED50 6 Hz (32 mA) (mice [8]): 39.2 (31.6–48.6) mg/kg; ED50 scPTZ (mice [9]): 54.8 (43.5–69.1) mg/kg; maximal sodium current amplitude normalized to control (1.0) [10]: 0.75 ± 0.04
12 | O=C(C(c1ccccc1)N1C(=O)CCC1=O)N1CCN(c2cccc(C(F)(F)F)c2)CC1 (stereo not drawn) [I] | – | – | – | – | – | – | – | – | – | ED50 MES (mice [7]): 23.7 (18.4–31.2) mg/kg; ED50 6 Hz (32 mA) (mice [8]): 22.4 (17.4–28.8) mg/kg; ED50 scPTZ (mice [9]): 59.4 (37.5–94.1) mg/kg; ED50 6 Hz (44 mA) (mice [11]): 73.2 (57.4–93.4) mg/kg; TD50 (rotarod test) (mice [12]; Table 2): 195.7 (132.7–288.6) mg/kg; TD50 (rotarod test) (mice [12]): 195.7 (132.7–288.6) mg/kg
13 | COC[C@@H](NC(C)=O)C(=O)NCc1ccccc1 [LCS, lacosamide] | – | – | – | – | – | – | – | – | – | ED50 6 Hz (44 mA) (mice [11]): 6.9 (5.4–8.6) mg/kg
14 | CC[C@@H](C(N)=O)N1CCCC1=O [LEV, levetiracetam, reference compound] | > 500 mg/kg | – | – | – | – | – | – | – | > 500 mg/kg | ED50 6 Hz (44 mA) (mice [11]): >500 mg/kg; TD50 (rotarod test) (mice [12]; Table 2): >500 mg/kg
15 | CCCC(CCC)C(=O)O [VPA, valproic acid, reference compound] | – | – | – | – | – | 239 mg/kg | – | – | – | dose active in the capsaicin test (mice [13]): 200 mg/kg
